Reference: ChEMBL document CHEMBL1201862, “PubChem BioAssay data set” (2004)
The source made the active and inactive calls.

Assays:
[1] = fluconazole-exposed Candida albicans growth modulators – fluorescence, retest, confirmation (AID 2467); type: functional, cell-based
[2] = NIH-3T3 fibroblast cytotoxicity, dose response, cytotoxicity control, cell-based, fluorescence, Alamar Blue, secondary assay (AID 2327); type: functional;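 also: NIH-3T3 mouse fibroblasts cultured with fluconazole at 8 µg/mL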
[3] = target: Voltage-dependent T-type calcium channel subunit alpha-1H (Homo sapiens, UniProt O95180); type: functional;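 also: channel activity triggered by adding a high calcium stimulation buffer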
Chain of Voltage-dependent T-type calcium channel subunit alpha-1H (O95180 whole entry): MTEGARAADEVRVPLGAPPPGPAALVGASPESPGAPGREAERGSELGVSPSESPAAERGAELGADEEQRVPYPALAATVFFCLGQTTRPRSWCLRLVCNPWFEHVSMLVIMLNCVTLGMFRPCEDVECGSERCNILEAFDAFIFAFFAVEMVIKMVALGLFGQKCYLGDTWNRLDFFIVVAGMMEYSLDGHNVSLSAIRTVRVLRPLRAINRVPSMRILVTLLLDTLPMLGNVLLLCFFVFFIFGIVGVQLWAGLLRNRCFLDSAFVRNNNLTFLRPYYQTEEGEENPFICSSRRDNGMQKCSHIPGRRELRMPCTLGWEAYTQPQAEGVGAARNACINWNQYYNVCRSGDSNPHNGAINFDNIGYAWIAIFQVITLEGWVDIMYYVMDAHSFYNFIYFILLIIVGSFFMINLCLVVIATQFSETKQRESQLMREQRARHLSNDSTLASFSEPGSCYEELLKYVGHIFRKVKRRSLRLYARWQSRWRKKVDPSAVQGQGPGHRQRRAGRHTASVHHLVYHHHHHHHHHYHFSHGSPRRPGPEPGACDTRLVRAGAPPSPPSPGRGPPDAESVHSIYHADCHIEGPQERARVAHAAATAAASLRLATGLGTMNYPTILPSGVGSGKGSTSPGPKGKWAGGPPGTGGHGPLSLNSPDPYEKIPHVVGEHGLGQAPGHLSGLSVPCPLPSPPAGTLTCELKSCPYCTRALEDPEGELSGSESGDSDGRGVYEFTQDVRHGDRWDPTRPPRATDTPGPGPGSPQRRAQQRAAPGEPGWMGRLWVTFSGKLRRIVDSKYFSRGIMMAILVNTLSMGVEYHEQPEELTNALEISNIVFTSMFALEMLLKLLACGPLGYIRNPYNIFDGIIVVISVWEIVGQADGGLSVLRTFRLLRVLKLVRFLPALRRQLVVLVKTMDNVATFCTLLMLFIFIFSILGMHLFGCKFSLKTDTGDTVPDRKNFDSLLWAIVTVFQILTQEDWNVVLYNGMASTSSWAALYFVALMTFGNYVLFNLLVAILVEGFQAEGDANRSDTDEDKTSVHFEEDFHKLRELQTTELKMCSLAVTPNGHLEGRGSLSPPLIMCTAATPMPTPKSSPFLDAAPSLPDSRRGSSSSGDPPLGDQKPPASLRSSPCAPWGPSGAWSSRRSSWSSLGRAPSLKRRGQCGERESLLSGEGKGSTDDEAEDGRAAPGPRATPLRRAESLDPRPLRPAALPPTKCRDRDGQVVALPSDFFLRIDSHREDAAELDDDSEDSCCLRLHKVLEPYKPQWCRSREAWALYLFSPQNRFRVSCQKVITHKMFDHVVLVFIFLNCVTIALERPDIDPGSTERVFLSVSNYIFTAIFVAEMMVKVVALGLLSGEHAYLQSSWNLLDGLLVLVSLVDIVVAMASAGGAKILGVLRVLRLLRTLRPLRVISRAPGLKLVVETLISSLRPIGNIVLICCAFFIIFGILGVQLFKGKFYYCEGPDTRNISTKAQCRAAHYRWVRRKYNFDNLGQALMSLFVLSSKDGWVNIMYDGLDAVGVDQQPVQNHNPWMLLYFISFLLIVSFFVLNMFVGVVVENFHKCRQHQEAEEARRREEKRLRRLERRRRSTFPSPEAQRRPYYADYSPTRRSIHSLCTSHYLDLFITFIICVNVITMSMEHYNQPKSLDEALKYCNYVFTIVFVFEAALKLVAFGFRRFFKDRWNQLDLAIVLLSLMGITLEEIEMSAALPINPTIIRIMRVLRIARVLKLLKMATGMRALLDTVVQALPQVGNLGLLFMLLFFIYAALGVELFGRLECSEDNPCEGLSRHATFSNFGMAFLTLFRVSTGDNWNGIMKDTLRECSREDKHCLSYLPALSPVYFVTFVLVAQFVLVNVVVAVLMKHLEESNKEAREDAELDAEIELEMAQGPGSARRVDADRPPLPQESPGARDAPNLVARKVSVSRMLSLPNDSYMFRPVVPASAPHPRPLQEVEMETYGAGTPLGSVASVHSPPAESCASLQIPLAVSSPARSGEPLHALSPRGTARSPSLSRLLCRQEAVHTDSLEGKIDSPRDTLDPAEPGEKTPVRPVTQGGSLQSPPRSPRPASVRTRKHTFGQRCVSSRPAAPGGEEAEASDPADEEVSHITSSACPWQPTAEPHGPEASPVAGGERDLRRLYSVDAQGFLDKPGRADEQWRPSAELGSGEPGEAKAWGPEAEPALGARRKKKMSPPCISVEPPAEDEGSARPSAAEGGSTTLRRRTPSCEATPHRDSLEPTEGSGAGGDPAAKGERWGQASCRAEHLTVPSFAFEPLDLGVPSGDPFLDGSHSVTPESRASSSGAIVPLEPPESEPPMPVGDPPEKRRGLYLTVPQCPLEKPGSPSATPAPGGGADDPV

[4] = target: T1, Type-1 angiotensin II receptor (Homo sapiens, UniProt P30556); assay: antagonism of angiotensin II type 1 receptor – cell-based, uHTS hits, selectivity assay for APJ receptor antagonist project, dose response (AID 463214); type: functional;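 also: antagonist potency against angiotensin II stimulated AT1 response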
T1 sequence (P30556 whole entry): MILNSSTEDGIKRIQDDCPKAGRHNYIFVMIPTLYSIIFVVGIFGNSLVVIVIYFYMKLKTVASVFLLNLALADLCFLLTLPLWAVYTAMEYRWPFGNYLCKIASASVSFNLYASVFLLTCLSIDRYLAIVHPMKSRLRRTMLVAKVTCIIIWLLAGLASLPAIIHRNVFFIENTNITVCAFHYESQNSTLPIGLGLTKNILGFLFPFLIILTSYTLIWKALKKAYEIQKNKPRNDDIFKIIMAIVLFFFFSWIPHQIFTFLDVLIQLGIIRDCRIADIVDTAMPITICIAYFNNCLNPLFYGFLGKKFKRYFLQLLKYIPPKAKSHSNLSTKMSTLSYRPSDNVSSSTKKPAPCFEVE

Beta-galactosidase = Beta-galactosidase (Escherichia coli, UniProt Q8VNN2); assay: PubChem AID 485352; type: functional
Chain of Beta-galactosidase (Q8VNN2 whole entry): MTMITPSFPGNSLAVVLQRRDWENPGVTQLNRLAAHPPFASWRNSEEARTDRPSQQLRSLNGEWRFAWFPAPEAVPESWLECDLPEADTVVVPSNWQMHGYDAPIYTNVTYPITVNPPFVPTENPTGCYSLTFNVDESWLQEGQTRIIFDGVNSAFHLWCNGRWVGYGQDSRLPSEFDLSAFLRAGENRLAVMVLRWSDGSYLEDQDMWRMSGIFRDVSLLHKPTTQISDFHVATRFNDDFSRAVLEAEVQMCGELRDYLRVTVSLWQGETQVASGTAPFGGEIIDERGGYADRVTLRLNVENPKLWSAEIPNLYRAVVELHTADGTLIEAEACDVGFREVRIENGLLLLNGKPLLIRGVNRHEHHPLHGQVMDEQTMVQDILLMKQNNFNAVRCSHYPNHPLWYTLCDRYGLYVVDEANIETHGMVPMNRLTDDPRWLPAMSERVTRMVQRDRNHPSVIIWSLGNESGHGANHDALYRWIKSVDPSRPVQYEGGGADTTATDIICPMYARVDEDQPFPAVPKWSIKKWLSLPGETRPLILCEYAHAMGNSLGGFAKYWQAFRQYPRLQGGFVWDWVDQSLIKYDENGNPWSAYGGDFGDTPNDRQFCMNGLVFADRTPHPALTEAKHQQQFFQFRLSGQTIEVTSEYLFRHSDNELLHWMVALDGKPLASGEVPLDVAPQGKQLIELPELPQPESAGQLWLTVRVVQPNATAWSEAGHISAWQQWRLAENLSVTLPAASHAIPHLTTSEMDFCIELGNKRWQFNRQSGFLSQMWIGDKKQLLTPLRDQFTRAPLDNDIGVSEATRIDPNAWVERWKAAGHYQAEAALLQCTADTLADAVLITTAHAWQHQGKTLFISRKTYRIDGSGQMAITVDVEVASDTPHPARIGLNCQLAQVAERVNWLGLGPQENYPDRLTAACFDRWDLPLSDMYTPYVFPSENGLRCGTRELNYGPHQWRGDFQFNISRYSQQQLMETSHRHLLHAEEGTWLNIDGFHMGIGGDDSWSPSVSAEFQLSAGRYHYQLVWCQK

[5] = target: 26S proteasome non-ATPase regulatory subunit 14 (Homo sapiens, UniProt O00487); assay: inhibition of proteasome subunit RPN11 – biochemical, fluorescence polarization, uHTS hits, confirmation (AID 602368); type: functional
Chain of 26S proteasome non-ATPase regulatory subunit 14 (O00487 whole entry): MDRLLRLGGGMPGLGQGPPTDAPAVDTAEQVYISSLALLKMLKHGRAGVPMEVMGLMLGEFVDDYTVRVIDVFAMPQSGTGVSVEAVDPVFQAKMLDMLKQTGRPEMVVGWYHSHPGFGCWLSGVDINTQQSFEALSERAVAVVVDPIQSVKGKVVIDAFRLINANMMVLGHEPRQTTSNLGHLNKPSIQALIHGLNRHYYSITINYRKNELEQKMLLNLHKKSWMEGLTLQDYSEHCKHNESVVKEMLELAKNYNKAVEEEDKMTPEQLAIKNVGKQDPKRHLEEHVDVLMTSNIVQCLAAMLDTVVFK

Prothrombin = Prothrombin (Bos taurus, UniProt P00735); assay: thrombin protease inhibitors – biochemical, fluorescence polarization, uHTS hits, dose response (AID 602369); type: functional
[6] = target: 72 kDa type IV collagenase (Homo sapiens, UniProt P08253); assay: Dose Response validation of uHTS RPN11 inhibitor hits using a MMP-2 Fluorescence assay.; type: functional
Chain of 72 kDa type IV collagenase (P08253 whole entry): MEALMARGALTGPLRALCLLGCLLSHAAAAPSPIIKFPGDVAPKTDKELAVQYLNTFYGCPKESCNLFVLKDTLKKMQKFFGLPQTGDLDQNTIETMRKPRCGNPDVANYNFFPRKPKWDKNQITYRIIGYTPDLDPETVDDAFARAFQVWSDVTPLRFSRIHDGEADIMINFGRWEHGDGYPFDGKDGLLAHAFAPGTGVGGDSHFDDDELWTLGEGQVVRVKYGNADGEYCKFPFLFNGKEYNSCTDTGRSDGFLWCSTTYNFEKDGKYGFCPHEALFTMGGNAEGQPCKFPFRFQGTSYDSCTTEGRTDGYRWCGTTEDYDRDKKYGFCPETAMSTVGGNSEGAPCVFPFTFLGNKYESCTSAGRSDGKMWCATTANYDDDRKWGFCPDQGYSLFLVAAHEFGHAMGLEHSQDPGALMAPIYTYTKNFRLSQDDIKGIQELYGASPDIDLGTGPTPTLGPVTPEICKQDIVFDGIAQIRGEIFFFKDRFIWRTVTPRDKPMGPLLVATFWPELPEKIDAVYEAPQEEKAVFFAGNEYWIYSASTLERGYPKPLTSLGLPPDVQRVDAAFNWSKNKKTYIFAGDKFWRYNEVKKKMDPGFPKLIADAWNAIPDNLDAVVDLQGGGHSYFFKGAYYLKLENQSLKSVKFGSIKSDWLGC

[7] = target: FAD-linked sulfhydryl oxidase ALR (Homo sapiens, UniProt P55789); assay: ALR-catalysed DTT oxidation blockers – biochemical, H2O2 detection, luminescence, cherry-pick, dose response (AID 493248)
Chain of FAD-linked sulfhydryl oxidase ALR (P55789 whole entry): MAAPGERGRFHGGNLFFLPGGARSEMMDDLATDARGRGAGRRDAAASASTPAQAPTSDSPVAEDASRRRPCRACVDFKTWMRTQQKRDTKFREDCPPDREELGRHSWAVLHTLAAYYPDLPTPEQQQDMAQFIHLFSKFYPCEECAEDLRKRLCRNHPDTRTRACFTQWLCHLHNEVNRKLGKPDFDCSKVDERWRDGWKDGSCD

[8] = A cytotoxicity screen of small molecule inhibitors of the PhoP region in Salmonella typhi identified in the primary screen. [Related pubchem assays: 1850, 1864, 1985 ]; type: functional
Cytochrome P450 3A4 = Cytochrome P450 3A4 (Homo sapiens, UniProt P08684); settings: Potency;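 also: confirmatory qHTS run detecting inhibitors and substrates of CYP3A4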
Chain of Cytochrome P450 3A4 (P08684 whole entry, the tested form may be a part): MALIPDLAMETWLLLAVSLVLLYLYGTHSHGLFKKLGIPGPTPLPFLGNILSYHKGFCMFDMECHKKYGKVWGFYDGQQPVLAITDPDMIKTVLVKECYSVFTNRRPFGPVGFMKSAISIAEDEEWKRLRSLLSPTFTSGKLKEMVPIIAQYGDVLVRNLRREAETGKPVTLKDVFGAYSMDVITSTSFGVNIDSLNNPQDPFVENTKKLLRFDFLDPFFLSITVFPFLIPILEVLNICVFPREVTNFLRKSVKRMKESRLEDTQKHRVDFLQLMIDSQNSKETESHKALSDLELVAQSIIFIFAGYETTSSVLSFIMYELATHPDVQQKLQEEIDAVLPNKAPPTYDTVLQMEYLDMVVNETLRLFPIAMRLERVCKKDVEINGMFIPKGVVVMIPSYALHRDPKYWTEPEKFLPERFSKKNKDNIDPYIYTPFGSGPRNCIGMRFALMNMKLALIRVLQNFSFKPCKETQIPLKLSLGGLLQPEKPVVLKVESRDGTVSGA

[9] = target: T2, RNA-binding protein pos-1 (Caenorhabditis elegans, UniProt G5EF15); assay: disruptors of C. elegans POS-1 RNA interaction – biochemical, fluorescence polarization, dose response (AID 1964);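 also: purified POS-1 fused to maltose binding protein made in E. coli; potency of compounds blocking POS-1 binding to fluorescent RNA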
T2 sequence (G5EF15 whole entry): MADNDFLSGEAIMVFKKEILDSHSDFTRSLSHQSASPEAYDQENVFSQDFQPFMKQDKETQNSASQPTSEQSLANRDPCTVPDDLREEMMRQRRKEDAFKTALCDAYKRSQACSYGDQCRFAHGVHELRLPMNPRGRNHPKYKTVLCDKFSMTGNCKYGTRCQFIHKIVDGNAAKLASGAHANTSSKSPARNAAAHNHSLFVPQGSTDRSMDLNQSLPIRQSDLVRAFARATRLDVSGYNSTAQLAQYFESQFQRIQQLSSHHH

[10] = target: T3, Zinc finger protein mex-5 (Caenorhabditis elegans, UniProt Q9XUB2); assay: potency of MEX-5 RNA-binding blockers – biochemical, C. elegans, fluorescence polarization, dose response (AID 1960)
T3 sequence (Q9XUB2 whole entry): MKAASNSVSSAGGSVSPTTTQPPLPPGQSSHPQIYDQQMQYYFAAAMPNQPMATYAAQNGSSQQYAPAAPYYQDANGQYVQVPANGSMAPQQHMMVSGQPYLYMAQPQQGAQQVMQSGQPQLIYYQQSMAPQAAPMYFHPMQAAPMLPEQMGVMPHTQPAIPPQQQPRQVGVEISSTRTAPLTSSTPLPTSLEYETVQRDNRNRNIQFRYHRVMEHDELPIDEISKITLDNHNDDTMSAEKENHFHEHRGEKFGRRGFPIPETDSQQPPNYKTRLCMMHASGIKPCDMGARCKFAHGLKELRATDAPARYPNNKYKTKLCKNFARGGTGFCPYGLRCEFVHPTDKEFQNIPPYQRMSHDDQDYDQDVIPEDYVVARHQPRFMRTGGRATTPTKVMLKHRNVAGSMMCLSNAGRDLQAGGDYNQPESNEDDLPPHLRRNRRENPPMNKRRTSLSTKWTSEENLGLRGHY

[11] = target: T4, Endoribonuclease toxin MazF (Escherichia coli K-12, UniProt P0AE70); assay: activation of MazEF endoribonuclease cleavage – biochemical, fluorescence, single-stranded RNA substrate, uHTS hits, dose response (AID 588481); type: functional
T4 sequence (P0AE70 whole entry): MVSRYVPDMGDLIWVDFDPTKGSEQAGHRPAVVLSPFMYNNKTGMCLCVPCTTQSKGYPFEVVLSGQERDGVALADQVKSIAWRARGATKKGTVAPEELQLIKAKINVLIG

[12] = target: T4, Endoribonuclease toxin MazF; assay: substrate-only fluorescence increase artefacts – biochemical, single-stranded RNase substrate, counter-screen for MazEF activator project, dose response (AID 588502); type: functional
H9c2 = assay: cells; type: functional, cell-based; settings: Rattus norvegicus, H9c2, Myocardium;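 also: confirmatory concentration-response retest of ultra-high-throughput screening hits for modulation of myocardial damage; cell death induced by hydrogen peroxide oxidative stress; compound pretreatment for 60 min then peroxide exposure for 2 h; potency is for protecting the cells against peroxide damage rather than for killing them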
Vero = assay: viability of Vero cells under compound – cytotoxicity control for flavivirus capping enzyme inhibitors (AID 588742); type: functional; settings: Chlorocebus sabaeus
[13] = viability of uninfected HEp-2 cells – cell-based, HTS, cytotoxicity control for RSV inhibitor project, dose response (AID 2410); type: functional; settings: human respiratory syncytial virus

Structure (SMILES): N#CC1CC(c2ccccc2)=NN1c1ccccc1[N+](=O)[O-] (stereo unspecified)
- EC50 [1]: > 38 µM (not active)
- EC50 [2]: > 160 µM (inactive)

Structure (SMILES): CC(Oc1ccccc1)c1ccnn1S(=O)(=O)c1ccccc1 (stereo unspecified)
- EC50 [3]: 50.8 µM (active)

Structure (SMILES): CCn1c(CNc2ccccc2Cl)nnc1SCC(=O)OC1CCCCC1
- EC50 [3]: 3.84 µM (active)

Structure (SMILES): CC1=NN(c2ccc(C)cc2)C(=O)/C1=C/c1ccc(-c2cc([N+](=O)[O-])ccc2O)o1
- IC50 [4]: > 40 µM (not active)
- EC50 (Beta-galactosidase): > 40 µM (inactive)

Structure (SMILES): COc1cccc(/N=C2\NC(=O)/C(=C/c3cc([N+](=O)[O-])ccc3O)S2)c1
- IC50 [4]: > 40 µM (not active)
- EC50 (Beta-galactosidase): > 40 µM (inactive)

Structure (SMILES): O=C(COC(=O)c1ccco1)c1ccc(S(=O)(=O)N2CCCCC2)cc1
- IC50 [4]: 16.5 µM (active)
- EC50 (Beta-galactosidase): > 40 µM (inactive)

Structure (SMILES): COCCNC(=O)c1c(NC(=O)c2nc(SC)ncc2Cl)sc2c1CCCC2
- IC50 [5]: 17.6 µM (active)
- IC50 (Prothrombin): 50 µM (active)
- IC50 [6]: > 100 µM (inactive)

Structure (SMILES): Cc1nn(CCC(=O)NN=C(S)Nc2ccc(F)cc2)c(C)c1Br
- IC50 [4]: > 40 µM (not active)
- EC50 (Beta-galactosidase): > 40 µM (inactive)

Structure (SMILES): Cc1cc(NS(=O)(=O)c2ccc(NC(=O)Nc3cccc(Cl)c3)cc2)no1
- AC50 [7]: 0.098 µM (active)
- EC50 [8]: > 50 µM (active)

Structure (SMILES): Cc1ccc(S(=O)(=O)NC2CCCCC2)cc1
- AC50 (Cytochrome P450 3A4): 20 µM (inconclusive)

Structure (SMILES): Cc1cc(NC(=O)/C(C#N)=C/c2ccc(-c3ccc(SC(F)F)cc3)o2)n(-c2ccccc2)n1
- EC50 [9]: 22.9 µM (active)
- EC50 [10]: 25.8 µM (active)
- EC50 [11]: > 99 µM (inactive)
- EC50 [12]: 48.9 µM (inactive)

Structure (SMILES): Cc1cc(NC(=O)c2cccc(Oc3ccccc3)c2)[nH]n1
- EC50 [1]: 1.87 µM (active)
- EC50 [2]: > 150 µM (inactive)

Structure (SMILES): O=C(CSc1nnc(-c2ccccc2)n1Cc1ccco1)NCc1ccc2c(c1)OCO2
- EC50 [3]: 12.1 µM (active)

Structure (SMILES): CNC(=O)/C(C#N)=C/c1c(N(Cc2ccccc2)Cc2ccccc2)nc2ccccn2c1=O
- IC50 (H9c2): > 79 µM (inactive)
- CC50 (Vero): > 40 µM (active)

Structure (SMILES): Cc1ccc2oc(C(=O)Nc3ccc(S(=O)(=O)Nc4onc(C)c4C)cc3)c(C)c2c1
- CC50 [13]: 25.9 µM (active)
- IC50 (cells): 23.7 µM (active)

Structure (SMILES): COc1ccccc1C(=O)Nc1ccc(NC(=O)c2ccco2)c(C)c1
- EC50 [3]: 6.29 µM (active)

Structure (SMILES): COc1ccc(N(C(=O)c2cccnc2)S(=O)(=O)c2ccc(F)cc2)cc1
- EC50 [8]: > 50 µM (active)

Structure (SMILES): Clc1ccc(C2[C@H]3CN(Cc4ccc(-c5ccccc5)cc4)[C@H](c4ccccc4)C34CC2(c2ccccc2)C4)cn1 (stereo partly specified)
- AC50 (Cytochrome P450 3A4): 15.8 µM (inconclusive)

Structure (SMILES): O=c1oc2ccccc2cc1-c1nc(-c2cccs2)cs1
- EC50 [9]: 15.6 µM (inconclusive)
- EC50 [10]: 5.43 µM (active)
- EC50 [11]: > 99 µM (inactive)
- EC50 [12]: > 99 µM (inactive)
